In patent US12002595B2, “Separation of metal ions by liquid-liquid extraction” (priority 2016, dated 2024):
Where two headings read alike, the source gives them in different places.

How the values were obtained:
[1] = La^3+; 25° C.; cited from earlier work
[2] = Ligand selectivity from stability constants; assay type: binding
Text: While this class of ligands, encompassing HOPO and catecholamide (CAM) derivatives, has been known for decades, it had never been studied in details for separation applications. In fact, a few exceptions aside, most of these chelators have only been studied with a single cation, such as Gd^3+, Th^4+, or Pu^4+, impairing broader evaluation of their metal-metal selectivity. The chemistry of some HOPO ligands was recently extended across the periodic table, highlighting their outstanding selectivity, and large superiority over polyaminocarboxylate chelators (IDA, EDTA, DTPA, etc.), typically encountered in separations (FIGS. 46A-46F). Stability constants (log βML) were calculated as described in Sturzbecher-Hoehne, M., Kullgren, B., Jarvis, E. E., An, D. D. & Abergel, R. J. Highly Luminescent and Stable Hydroxypyridinonate Complexes: A Step Towards New Curium Decontamination Strategies. Chem. Eur. J. 20, 9962-9968 (2014); Sturzbecher-Hoehne, M., Yang, P., D'Aldo, A. & Abergel, R. J. Intramolecular sensitization of americium luminescence in solution: shining light on short-lived forbidden 5f transitions. Dalton Trans. 45, 9912-9919 (2016); Deblonde, G. J.-P., Lohrey, T. D., An, D. D. & Abergel, R. J. Toxic heavy metal—Pb, Cd, Sn—complexation by the octadentate hydroxypyridinonate ligand archetype 3,4,3-LI(1,2-HOPO). New J. Chem. 42, 7649-7658 (2018). […]

[3] = Persistence of the metal complex versus acidity; assay type: binding; conditions: Hf^4+
[4] = Lu^3+; 25° C.; cited from earlier work
[5] = Th^4+; 25° C.; cited from earlier work
[6] = Cd^2+; 25° C.; cited from earlier work
[7] = Extraction by TODGA from HNO3 in the absence or presence of 1 mM 343HOPO
Description: Organic phase: 0.1 M TODGA in kerosene. Aqueous solvent: HNO3. T=25° C. O/A=1, one contact. Points with arrows are lower limits.
(§1) For Example 20—Example 24, pH measurements were performed with a glass electrode (Metrohm-Micro Combi-response to [H+]) calibrated at 25.0° C. using three NIST standards. Extraction samples were analyzed by liquid scintillation counting (LSC). The distribution coefficient, D(M), of a given metal, M, is defined in Eq. 1, where [M]organic and [M]aqueous are the respective total concentrations of M in the organic and aqueous layers, after extraction. Both concentrations are proportional to the volumetric activity (in Bq/L) determined by LSC. The separation factor, SFM1/M2, between two metals, M1 and M2, and extraction yield were calculated according to Eq. 2 and Eq. 3, respectively.
(§2) In a typical experiment, the solvent (extractant diluted in kerosene) was pre-conditioned by shaking one volume of solvent with three volumes of aqueous phase (typically HNO3) at room temperature for 1 h, thrice. For radioisotope extractions, at least 400 μL aqueous phase (typically containing HNO3, a chelator and a radioisotope) and solvent were placed in air-tight screw-capped plastic tubes, triply-contained, and shaken in a thermoshaker at 300 rpm, 25° C., for at least 30 min. Samples were then centrifuged for 5 min at 3000 rpm and phases separated before analysis. LSC analyses were performed on a Packard Tri-Carb B4430 instrument (Perkin Elmer) after mixing sample aliquots or sample dilution aliquots (10 to 200 μL) with 10 mL of scintillation cocktail (UltimaGold LLT). Samples were counted for at least 6 min and results were background subtracted. The analytical samples contained between 0 and 800,000 CPM. Mixtures of ^249Bk and ^249Cf were analyzed using α/β discrimination and energy windows were set to 0-50 keV for low-energy β particles of ^249Bk and 50-1000 keV for α particles of ^249Cf. ^243Am and ^225Ac samples were counted at secular equilibrium.

[8] = as above; remark: listed apart in the source
Description: Aqueous phase: 0 or 1 mM 343HOPO in HNO3. Organic phase: 0.1 M TODGA in kerosene. T=25° C. O/A=1, one contact. Points with arrows are lower limits.
Aqueous phase: 1 mM 343HOPO in 3 M HNO3. Organic phase: TODGA in kerosene. O/A=1. One contact. T=25° C.
as §1, §2

O=C(NCCCN(CCCCN(CCCNC(=O)c1cccc(=O)n1O)C(=O)c1cccc(=O)n1O)C(=O)c1cccc(=O)n1O)c1cccc(=O)n1O [3,4,3-LI(1,2-HOPO)]
log βML [1]: 16.4 ± 0.4 | Ce^4+/Ce^3+ selectivity above what could be expected from a carboxylate ligand [2]: about 15 orders of magnitude | acidity range over which the ligand stays bound [3]: from pH 8 to strongly acidic solutions (at least 6 M HCl) | log βML [4]: 21.2 ± 0.1 | log βML [5]: 40.1 ± 0.5 | log βML [6]: 16.1 ± 0.3 | SFU/Pu ([7]; 1 mM 343HOPO, 0.1 M TODGA in kerosene): around 50,000 | SF values between the trivalent ions and Pu^4+ ([7]; 1 mM 343HOPO, 0.1 M TODGA in kerosene, LoD reached): above 450,000,000 | separation factor for redox-free Pu purification against uranyl ions and trivalent actinides or fission products ([7]; summary statement): over 10^8 | SF, isolation of Bk from adjacent actinides and fission products ([8]; one-step separation method, summary statement): > 3×10^6 | SFCf/Bk ([8]; regardless of the TODGA and HNO3 concentrations): > 1,000,000 | Bk extracted ([8]; throughout the acidity range, 1 mM 343HOPO, 0.1 M TODGA): less than 1%
